In patent US8889704B2 (Array BioPharma Inc., priority 2011, dated 2014) one finds IC50 data, which are given here for 19 molecules.

pIC50: −log10 of the molar value. Structures can show the parent of a compound that is named as a salt. A value given as a limit tells only on which side of the number the result lay.

Holding throughout (format): biochemical
The target of one experiment is PIM-1 (Homo sapiens, UniProt P11309). Kind of experiment: Enzyme PIM-1 Assay ([33P]ATP incorporation into PIM2tide, filter plate). The following applies: averaged IC50; 35 μM ATP, 7.5 μM PIM2tide, 0.25 nM PIM-1, 60 min at 22° C. The gist of the method: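 Ten-point, 3-fold dilution series (10 μM top, 2% DMSO final) tested for inhibition of 33P transfer from 35 μM ATP to 7.5 μM PIM2tide by 0.25 nM PIM-1. Reaction 60 min, 22 °C, pH 7.4 MOPS/MgCl2 buffer; phosphocellulose capture, scintillation counting, IC50 where fitted POC equals 50.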

Experiment [1] deals with T1, GST-tagged recombinant full-length human Pim-2 (Homo sapiens, UniProt Q9P1W9).
T1 construct: GST-tagged recombinant full-length human Pim-2; GST
Kind of experiment: PIM-2 Assay (as Example A). The following applies: averaged IC50; 4 μM ATP, 1.0 μM PIM2tide, 1.5 nM Pim-2. An outline of the steps:
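IC50 was derived by 4-parameter logistic fitting of percent-of-control data over a 10-point, 3-fold series (highest 10 μM, 2% DMSO). Reactions held 1.5 nM GST-Pim-2 (full-length, human), 4 μM [γ-33P]ATP and 1.0 μM PIM2tide for 60 min at 22 °C, pH 7.4; 33P-peptide captured on P81 filters.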

A further experiment addresses recombinant rat PIM-3 (Rattus norvegicus, UniProt O70444). Kind of experiment: PIM-3 Assay (as Example A). As to conditions: averaged IC50; 30 μM ATP, 3.75 μM PIM2tide, 0.5 nM PIM-3. An outline of the steps:
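33P incorporation from 30 μM [γ-33P]ATP into 3.75 μM PIM2tide by 0.5 nM rat PIM-3, 60 min at 22 °C in pH 7.4 MOPS buffer, read by P81 filter capture and scintillation counting. Compounds tested in 3-fold dilutions up to 10 μM final, 2% DMSO; percent-of-control data fitted by 4-parameter logistic for IC50.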

Usually pIC50 stands for −log10 of the IC50, conventionally taken in molar units.

T1 sequence (Q9P1W9 whole entry): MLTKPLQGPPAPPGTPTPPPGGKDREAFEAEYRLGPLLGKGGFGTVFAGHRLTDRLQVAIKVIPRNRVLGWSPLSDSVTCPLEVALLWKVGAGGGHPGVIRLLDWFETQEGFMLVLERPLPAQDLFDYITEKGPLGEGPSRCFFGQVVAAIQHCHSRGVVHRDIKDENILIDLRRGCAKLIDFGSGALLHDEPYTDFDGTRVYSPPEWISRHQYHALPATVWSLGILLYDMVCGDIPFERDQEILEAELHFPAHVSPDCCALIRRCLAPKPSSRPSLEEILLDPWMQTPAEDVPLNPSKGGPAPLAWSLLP
Sequence of PIM-1 (P11309 whole entry, species assumed): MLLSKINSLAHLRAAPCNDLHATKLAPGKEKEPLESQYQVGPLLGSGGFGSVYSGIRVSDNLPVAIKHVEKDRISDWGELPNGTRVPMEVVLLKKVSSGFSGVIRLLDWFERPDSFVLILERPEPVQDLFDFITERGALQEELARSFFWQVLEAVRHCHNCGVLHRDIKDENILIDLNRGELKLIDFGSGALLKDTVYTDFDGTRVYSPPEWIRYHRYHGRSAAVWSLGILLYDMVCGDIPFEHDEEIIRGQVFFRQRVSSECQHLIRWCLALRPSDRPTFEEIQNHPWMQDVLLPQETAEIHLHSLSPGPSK

For `CC1(COc2cccc3ccc(-c4nnc5ccc([C@@H](N6CC[C@H](N)C6)C(F)(F)F)cn45)nc23)COC1` [Example 192, (S)-1-((R)-2,2,2-trifluoro-1-(3-(8-(3-methyloxetan-3-yl)methoxy)quinolin-2-yl)-[1,2,4]triazolo[4,3-a]pyridin-6-yl)ethyl)pyrrolidin-3-amine diformate], the results for the negative-log IC50 (pIC50) (on PIM-1; in experiment [1]; on recombinant rat PIM-3) were 9.77, 7.10 and 9.30, respectively.

Take `CC(C)Oc1cccc2ccc(-c3nnc4ccc([C@@H](N5CCC(N)(CO)C5)C(F)(F)F)cn34)nc12` (stereo partly drawn) [Example 197, (3-amino-1-((R)-2,2,2-trifluoro-1-(3-(8-isopropoxyquinolin-2-yl)-[1,2,4]triazolo[4,3-a]pyridin-6-yl)ethyl)pyrrolidin-3-yl)methanol dihydrochloride]: the pIC50 against PIM-1 is 9.52; in experiment [1] it was 6.82; at recombinant rat PIM-3, 9.05.

In the case of `CC1(COc2ccc3ccc(-c4nnc5ccc([C@@H](N6CC[C@H](N)C6)C(F)(F)F)cn45)nc3c2)COC1` [Example 198, (S)-1-((R)-2,2,2-trifluoro-1-(3-(7-((3-methyloxetan-3-yl)methoxy)quinolin-2-yl)-[1,2,4]triazolo[4,3-a]pyridin-6-yl)ethyl)pyrrolidin-3-amine diformate], the negative-log IC50 (pIC50) is 9.85 on PIM-1, 6.91 in experiment [1] and 9.70 on recombinant rat PIM-3.

`Cc1cc(-c2cc3nc(-c4nnc5ccc([C@@H](N6CC[C@H](N)C6)C(F)(F)F)cn45)ccc3cc2F)n(C)n1` [Example 204, (3 S)-1-((1R)-1-(3-(7-(1,3-dimethyl-1H-pyrazol-5-yl)-6-fluoroquinolin-2-yl)-[1,2,4]triazolo[4,3-a]pyridin-6-yl)-2,2,2-trifluoroethyl)pyrrolidin-3-amine dihydrochloride]: the negative-log IC50 (pIC50) on PIM-1 was 9.32; in experiment [1], less than 6.00; at recombinant rat PIM-3 it was 8.52.

`Cc1nn(C)cc1-c1cc2nc(-c3nnc4ccc([C@@H](N5CC[C@H](N)C5)C(F)(F)F)cn34)ccc2cc1F` [Example 205, (3 S)-1-((1R)-1-(3-(7-(1,3-dimethyl-1H-pyrazol-4-yl)-6-fluoroquinolin-2-yl)-[1,2,4]triazolo[4,3-a]pyridin-6-yl)-2,2,2-trifluoroethyl)pyrrolidin-3-amine dihydrochloride]: the results for the negative-log IC50 (pIC50) (against PIM-1; in experiment [1]; at recombinant rat PIM-3) were 9.85, 6.61 and 9.70, respectively.

Turning to `Cc1c(-c2cc3nc(-c4nnc5ccc([C@@H](N6CC[C@H](N)C6)C(F)(F)F)cn45)ccc3cc2F)cnn1C` [Example 206, (3 S)-1-((1R)-1-(3-(7-(1,5-dimethyl-1H-pyrazol-4-yl)-6-fluoroquinolin-2-yl)-[1,2,4]triazolo[4,3-a]pyridin-6-yl)-2,2,2-trifluoroethyl)pyrrolidin-3-amine dihydrochloride], the pIC50 against PIM-1 was 10.05; in experiment [1] it was 7.26; at recombinant rat PIM-3, 10.00.

Turning to `N[C@H]1CCN([C@H](c2ccc3nnc(-c4ccc5cccc(O)c5n4)n3c2)C(F)(F)F)C1` [Example 208, 2-(6-((R)-1-((S)-3-aminopyrrolidin-1-yl)-2,2,2-trifluoroethyl)-[1,2,4]triazolo[4,3-a]pyridin-3-yl)quinolin-8-ol dihydrochloride], the pIC50 on PIM-1 was 9.39; in experiment [1] it was less than 6.00; on recombinant rat PIM-3 it was 8.60.

Turning to `Cc1c(C(=O)NC(C)C)ccc2ccc(-c3nnc4ccc([C@@H](N5CC[C@H](N)C5)C(F)(F)F)cn34)nc12` [Example 209, 2-(6-((R)-1-((S)-3-aminopyrrolidin-1-yl)-2,2,2-trifluoroethyl)-[1,2,4]triazolo[4,3-a]pyridin-3-yl)-N-isopropyl-8-methylquinoline-7-carboxamide], the pIC50 was 9.26 against PIM-1, 6.75 in experiment [1] and 9.22 at recombinant rat PIM-3.

As to `COc1cc2nc(-c3nnc4ccc([C@@H](N5C[C@@H](N)[C@@H](F)C5)C(F)(F)F)cn34)ccc2cc1F` [Example 210, (3R,4S)-4-fluoro-1-((R)-2,2,2-trifluoro-1-(3-(6-fluoro-7-methoxyquinolin-2-yl)-[1,2,4]triazolo[4,3-a]pyridin-6-yl)ethyl)pyrrolidin-3-amine dihydrochloride], the pIC50 at PIM-1 is less than 7.00; in experiment [1], less than 6.00; at recombinant rat PIM-3 it was less than 7.00.

For the molecule `COc1cc2nc(-c3nnc4ccc([C@@H](N5C[C@@H](N)[C@H](F)C5)C(F)(F)F)cn34)ccc2cc1F` [Example 211, (3R,4R)-4-fluoro-1-((R)-2,2,2-trifluoro-1-(3-(6-fluoro-7-methoxyquinolin-2-yl)-[1,2,4]triazolo[4,3-a]pyridin-6-yl)ethyl)pyrrolidin-3-amine dihydrochloride], the negative-log IC50 (pIC50) on PIM-1 is 9.28; in experiment [1], 6.19; on recombinant rat PIM-3, 8.40.

With `CO[C@@H](C)COc1cccc2ccc(-c3nnc4ccc([C@@H](N5CC[C@H](N)C5)C(F)(F)F)cn34)nc12` [Example 212, (S)-1-((R)-2,2,2-trifluoro-1-(3-(8-((S)-2-methoxypropoxy)quinolin-2-yl)-[1,2,4]triazolo[4,3-a]pyridin-6-yl)ethyl)pyrrolidin-3-amine dihydrochloride], the negative logarithm of the IC50 (pIC50) on PIM-1 is 9.85; in experiment [1], 7.14; on recombinant rat PIM-3 it was 9.52.

For the molecule `Cc1cc(-c2ccc3ccc(-c4nnc5ccc([C@@H](N6CC[C@H](N)C6)C(F)(F)F)cn45)nc3c2C)n(C)n1` [Example 213, (3S)-1-((1R)-1-(3-(7-(1,3-dimethyl-1H-pyrazol-5-yl)-8-methylquinolin-2-yl)-[1,2,4]triazolo[4,3-a]pyridin-6-yl)-2,2,2-trifluoroethyl)pyrrolidin-3-amine], the pIC50 at PIM-1 is 9.19; in experiment [1] it was less than 6.00; at recombinant rat PIM-3, 8.10.

For the molecule `Cc1c(-c2cnn(C)c2C)ccc2ccc(-c3nnc4ccc([C@@H](N5CC[C@H](N)C5)C(F)(F)F)cn34)nc12` [Example 214, (3S)-1-((1R)-1-(3-(7-(1,5-dimethyl-1H-pyrazol-4-yl)-8-methylquinolin-2-yl)-[1,2,4]triazolo[4,3-a]pyridin-6-yl)-2,2,2-trifluoroethyl)pyrrolidin-3-amine dihydrochloride], the negative-log IC50 (pIC50) at PIM-1 is 9.42; in experiment [1], 6.86; on recombinant rat PIM-3 it was 9.40.

With `N[C@H]1CCN([C@H](c2ccc3nnc(-c4ccc5cc(F)c(OC(F)F)cc5n4)n3c2)C(F)(F)F)C1` [Example 215, (S)-1-((R)-1-(3-(7-(difluoromethoxy)-6-fluoroquinolin-2-yl)-[1,2,4]triazolo[4,3-a]pyridin-6-yl)-2,2,2-trifluoroethyl)pyrrolidin-3-amine dihydrochloride], the values for the pIC50 (against PIM-1; in experiment [1]; at recombinant rat PIM-3) were 9.33, less than 6.00 and 8.51, respectively.

On to `CC(C)Oc1cc(F)cc2ccc(-c3nnc4ccc([C@H](N5CC[C@](C)(N)C5)C(F)(F)F)cn34)nc12` [Example 216, (S)-3-methyl-1-((S)-2,2,2-trifluoro-1-(3-(6-fluoro-8-isopropoxyquinolin-2-yl)-[1,2,4]triazolo[4,3-a]pyridin-6-yl)ethyl)pyrrolidin-3-amine dihydrochloride], for which the pIC50 on PIM-1 is 9.42; in experiment [1] it was 7.25; at recombinant rat PIM-3 it was 9.10.

Take `COc1cccc2ccc(-c3nnc4ccc([C@H](N5CC[C@](C)(N)C5)C(F)(F)F)cn34)nc12` [Example 217, (S)-3-methyl-1-((S)-2,2,2-trifluoro-1-(3-(8-methoxyquinolin-2-yl)-[1,2,4]triazolo[4,3-a]pyridin-6-yl)ethyl)pyrrolidin-3-amine dihydrochloride]: the pIC50 against PIM-1 was 9.49; in experiment [1], 7.40; at recombinant rat PIM-3 it was 9.40.

In the case of `COc1cc(F)cc2ccc(-c3nnc4ccc([C@H](N5CC[C@](C)(N)C5)C(F)(F)F)cn34)nc12` [Example 218, (S)-3-methyl-1-((S)-2,2,2-trifluoro-1-(3-(6-fluoro-8-methoxyquinolin-2-yl)-[1,2,4]triazolo[4,3-a]pyridin-6-yl)ethyl)pyrrolidin-3-amine], the negative-log IC50 (pIC50) against PIM-1 is 9.59; in experiment [1] it was 7.48; on recombinant rat PIM-3 it was 9.40.

Regarding `N[C@H]1CCN([C@H](c2ccc3nnc(-c4ccc5cccc(OCCO)c5n4)n3c2)C(F)(F)F)C1` [Example 219, 2-(2-(6-((R)-1-((S)-3-aminopyrrolidin-1-yl)-2,2,2-trifluoroethyl)-[1,2,4]triazolo[4,3-a]pyridin-3-yl)quinolin-8-yloxy)ethanol dihydrochloride], the pIC50 on PIM-1 is 9.59; in experiment [1], 6.60; on recombinant rat PIM-3 it was 8.92.

Regarding `CCOc1cc2nc(-c3nnc4ccc([C@H](N5CC[C@](C)(N)C5)C(F)(F)F)cn34)ccc2cc1F` [Example 220, (S)-1-((S)-1-(3-(7-ethoxy-6-fluoroquinolin-2-yl)-[1,2,4]triazolo[4,3-a]pyridin-6-yl)-2,2,2-trifluoroethyl)-3-methylpyrrolidin-3-amine], the pIC50 at PIM-1 is 9.55; in experiment [1], 7.14; at recombinant rat PIM-3, 9.40.
